Entries after “also recorded” stand apart in the source; their conditions may differ. Read-outs that look alike come from different tables or passages of the source.
Tested on: human umbilical vein endothelial (HUVE) cells
Assay: bFGF-induced proliferation of HUVE cells (uridine incorporation)
Type: cell-based
Details: for Effect on Proliferation: bFGF 10 ng/ml, 48 hours, HUVE cells; for antiproliferative activity, plasma TFPI compared with HepG2 TFPI: HUVE cell proliferation assay, FIG. 4
Procedure: Proliferation assays familiar to those skilled in the art using human umbilical vein endothelial (HUVE) cells were used to determine the effect of TFPI on bFGF-induced proliferation of human umbilical vein endothelial cells.
The proliferation assay involved the routine culturing of human umbilical vein endothelial (HUVE) cells to confluency in EGM media. The cells were trypsinized and plated in a 96-well plate at 5000 cells per well per 100 μL EBM media. The cells were allowed to adhere to the plate for at least 2 hours. Next, bFGF at 10 ng/ml and TFPI at various concentrations were added to the wells. The cells were cultured for 48 hours after which cell proliferation was determined using a standard uridine incorporation method.
Proliferation assays using HUVE cells, as described in Example 1, were used to determine the effect of heparin on TFPI inhibition of bFGF-induced proliferation. The purpose of this study was to determine whether heparin was able to neutralize the antiproliferative activity of TFPI.
TFPI was pre-incubated with equimolar concentrations of heparin and with concentrations of heparin that were five-fold in excess of the concentration of TFPI. The results are summarized below and are presented graphically in FIGS. 5a and 5b.
Cell proliferation assays, as described in Example 1, were conducted to determine the relative potency of native TFPI versus recombinant TFPI.
Cell proliferation assays, as described in Example 1, were conducted using full length recombinant TFPI, Platelet Factor 4 (PF-4), and recombinant Kringle 1-3 of Angiostatin™ peptide. Both PF-4 and Angiostatin™ peptide are known endogenous inhibitors of angiogenesis. PF-4 is a protein involved in the blood coagulation cascade and is referenced as an inhibitor of angiogenesis by Maione, T. et al. in the article “Inhibition of Angiogenesis by Recombinant Human Platelet Factor-4 and Related Peptides” Science 247:77 (1990). Angiostatin is a fragment of plasminogen and its inhibitory effect on angiogenesis is described by Cao, Y. et al. in the article “Kringle Domains of Human Angiostatin” J. Biol. Chem. 271:1 (1996).
PF-4 and TFPI were tested for inhibition of human umbilical vein endothelial cell (HUVEC) proliferation. Angiostatin™ peptide was tested for the inhibition of bovine capillary endothelial (BCE) proliferation.
Cell proliferation assays, as described above in Example 1, were conducted using fragments of recombinant TFPI containing the following domains: Kunitz-1, Kunitz-2, or Kunitz-3.

[1] = Example 3, native versus recombinant TFPI, read-out: Fifty percent inhibition of the bFGF-induced proliferation of HUVE cells

Substance: Recombinant, Full Length: full length, partially glycosylated TFPI (molecular weight 35,000) produced recombinantly
- IC50 [1]: 150 nM
- potency relative to recombinant PF-4 (HUVE cell proliferation, 50% inhibition compared): approximately ten times more potent
- IC50 (HUVEC proliferation, Example 4 table, read-out: Concentration for 50% Inhibition): ~125 nM
- activity relative to recombinant Kringle 1-3 of angiostatin (TFPI on HUVE cells versus Kringle 1-3 on BCE cells): more active
- Effect on Proliferation: Inhibition of Proliferation

Substance: TFPI: tissue factor pathway inhibitor, source not specified in the heparin experiment (SEQ ID No. 1)
- Antiproliferative Activity of TFPI (effect of heparin) (TFPI pre-incubated with equimolar heparin): did not lose its antiproliferative activity; also recorded: No Effect
- Antiproliferative Activity of TFPI (effect of heparin) (TFPI pre-incubated with heparin five-fold in excess of TFPI): did not lose its antiproliferative activity; also recorded: No Effect

Substance: Purified From HepG2 cells: TFPI purified from HepG2 cells containing full length and carboxyl-terminal lacking molecules
- antiproliferative activity, plasma TFPI compared with HepG2 TFPI: comparable activities
- Effect on Proliferation: Inhibition of Proliferation

Substance: Purified From Human Plasma: full length, fully glycosylated TFPI (molecular weight 43,000) purified from human plasma
- IC50 [1]: 75 nM
- antiproliferative activity, plasma TFPI compared with HepG2 TFPI: comparable activities
- Effect on Proliferation: Inhibition of Proliferation

Substance: PF-4: Platelet Factor 4, protein of the blood coagulation cascade, known endogenous inhibitor of angiogenesis [reference compound]
- IC50 (Example 4, read-out: concentration required for 50% inhibition of HUVE cell proliferation): 1250 nM
